Experiments:
Mouse kidney M-1 cells = test: Ussing Chamber assay: inhibition of amiloride sensitive short circuit current; type: cell-based; details: compound in the apical solution, 37° C.
Experimental: Ussing Chamber: Mouse kidney M-1 cells were cultivated in DMEM containing 5% FCS and 5 μM dexamethasone for 10 to 12 days on polyester transwell filters. Filters were inserted into a teflon-coated well-plate which fit into the ussing chamber system. Prior to measurement the medium of M−1 cells was replaced with Caco-2 transport buffer (Invitrogen, Germany). During measurements, the Ussing chamber temperature was kept at 37° C. Short circuit currents (l_sc) were measured in the voltage-clamp mode with the software package Lab View for data acquisition and analysis. The transepithelial electrical resistance (TEER) was determined by the application of voltage steps of ±5 mV every 5 sec. Compounds were administered at a final concentration of 3 μM or at increasing concentrations (1-3-10 μM) to the apical solution. At the end of each experiment the amiloride sensitive l_SC was measured by adding 3 μM amiloride to the apical compartment. Results are expressed as inhibition in percent of the amiloride effect or as IC50.
With the example compounds given above, the following IC50 values were determined in the Ussing Chamber assay: […]

[1] = Permeability in CALU-3 cells; type: in vitro ADME; details: human, CALU-3 monolayers, pH 7.4, 37° C., 10 μM compound
Experimental: Permeability in CALU-3 cells:
Permeability measurements across polarized, confluent CALU-3 cell monolayers grown on permeable filter supports are used to provide information on the potential of a compound to pass the lung epithelium. Apparent permeability coefficients (Papp) of the compounds across the CALU-3 cell monolayers are measured (pH 7.4, 37° C.) in apical-to-basal (AB) and basal-to-apical (BA) transport direction.
CALU-3 cells (1−2×10^5 cells/1 cm^2 area) are seeded on filter inserts (Costar transwell polycarbonate filters, 0.4 μm pore size) and cultured (DMEM) for 10-12 days until tight monolayers are formed. Compounds of interest are dissolved in appropriate solvent (DMSO, 10 mM stock solution). Stock solutions are diluted with HTP-4 buffer (128.13 mM NaCl, 5.36 mM KCl, 1 mM MgSO4, 1.8 mM CaCl2, 4.17 mM NaHCO3, 1.19 mM Na2HPO4×7H2O, 0.41 mM NaH2PO4×H2O, 15 mM HEPES, 20 mM glucose, 0.25% BSA, pH 7.4) to prepare the transport solutions (10 μM compound, final DMSO<=0.5%). The transport solution (TL) is applied to the apical or basolateral donor side for measuring A-B or B-A permeability (3 filter replicates), respectively. The receiver side contains the same buffer as the donor side. After 30 min of accommodation, samples are collected at the start t0=0 min and at the end of the experiment tn=90 min from the donor and at 0, 30, 60, and 90 min also from the receiver chamber. Volume removed is replenished by HTP-4 buffer. The compound concentration in the samples is measured by HPLC-MS/MS or scintillation counting. The permeability coefficient (Papp) and efflux ratio are calculated according to: Papp[cm/s]=(concentration receiver[nM]*volume receiver[mL]/time interval[sec])*(1/filter area)*(1/donor concentration[nM])
With example compounds given above, the following permeability values were determined in the CALU-3 cells assay: […]

With CCOP(=O)(OCC)c1ccc(CCC[n+]2c(CNC(=O)c3nc(Cl)c(N)nc3N)n(CC)c3cc(OC)ccc32)cc1.O=C([O-])C(F)(F)F [Example 1.1] the IC50 (Mouse kidney M-1 cells) was 2 nM, the Papp A→B at 90 min, 10 μM ([1]; apical-to-basal) was 0.16 ×10⁻⁶ cm/s and the Papp B→A at 90 min, 10 μM ([1]; basal-to-apical) was 0.28 ×10⁻⁶ cm/s.

Compound CCn1c(CNC(=O)c2nc(Br)c(N)nc2N)[n+](CCOCCOCCO)c2ccc(OC)cc21.O=C([O-])C(F)(F)F [Example 2.1] has an IC50 (Mouse kidney M-1 cells) of 1 nM, a Papp A→B at 90 min, 10 μM ([1]; apical-to-basal) of 0.23 ×10⁻⁶ cm/s and a Papp B→A at 90 min, 10 μM ([1]; basal-to-apical) of 0.4 ×10⁻⁶ cm/s.

CC[n+]1c(CNC(=O)c2nc(Cl)c(N)nc2N)n(C2CCN(C(C)=O)CC2)c2ccccc21.O=C[O-] [Example 3.1] gave an IC50 (Mouse kidney M-1 cells) of 5 nM, a Papp A→B at 90 min, 10 μM ([1]; apical-to-basal) of 1.7 ×10⁻⁶ cm/s and a Papp B→A at 90 min, 10 μM ([1]; basal-to-apical) of 0.45 ×10⁻⁶ cm/s.

In the case of CC[n+]1c(CNC(=O)c2nc(Cl)c(N)nc2N)n(CCCP(=O)(O)O)c2ccc(OC)cc21.O=C([O-])C(F)(F)F [Example 4.1], the IC50 (Mouse kidney M-1 cells) is reported as 56 nM, the Papp A→B at 90 min, 10 μM ([1]; apical-to-basal) is reported as < 0.34 ×10⁻⁶ cm/s and the Papp B→A at 90 min, 10 μM ([1]; basal-to-apical) is reported as 0.08 ×10⁻⁶ cm/s.

Work on CCOP(=O)([O-])CCCn1c(CNC(=O)c2nc(Cl)c(N)nc2N)[n+](CC)c2cc(OC)ccc21 [Example 5.1] yielded an IC50 (Mouse kidney M-1 cells) of 29 nM, a Papp A→B ([1]; apical-to-basal) of 0.17 ×10⁻⁶ cm/s and a Papp B→A ([1]; basal-to-apical) of 0.05 ×10⁻⁶ cm/s.
